Test results as given in patent publication US20220304918A1, “Oral Compositions Comprising Hops And Sweeteners” (The Proctor & Gamble Company, priority 2021, published 2022).
Where a SMILES comes first, the peptide text is derived from it.

Assay: Peak sweetness intensity perception relative to sucrose (potency-normalized comparison)
Design: key: Quick: display a peak sweetness intensity faster than that experienced for sucrose; Slow: display a peak sweetness intensity slower than that experienced for sucrose
Details: sucrose as reference
Excerpt: The sweeteners listed in TABLE 1 have been categorized with respect to their peak sweetness intensity perception relative to sucrose as either quick or slow. Those sweeteners that have been categorized as “quick” display a peak sweetness intensity faster than that experienced for sucrose. Those sweeteners that have been categorized as “slow” display a peak sweetness intensity slower than that experienced for sucrose. Comparisons of peak sweetness intensity are made using potency-normalized comparisons to account for the different amounts of each ingredient to experience the same absolute peak sweetness.

Compound	Onset Speed Relative to Sucrose
CC1=CC(=O)NS(=O)(=O)O1 [Acesulfame K]	Quick
COC(=O)[C@H](Cc1ccccc1)NC(=O)[C@@H](N)CC(=O)O [Aspartame] (H-Asp-Phe-OMe)	Slow
OC[C@@H](O)[C@@H](O)CO [Erythritol]	Quick
COC(=O)[C@H](Cc1ccccc1)NC(=O)[C@H](CC(=O)O)NCCC(C)(C)C [Neotame]	Slow
O=C1NS(=O)(=O)c2ccccc21 [Saccharin]	Quick
OC[C@@H](O)[C@@H](O)[C@H](O)[C@@H](O)CO [Sorbitol]	Quick
OC[C@H]1O[C@H](O[C@]2(CCl)O[C@H](CCl)[C@@H](O)[C@@H]2O)[C@H](O)[C@@H](O)[C@H]1Cl [Sucralose]	Slow
OC[C@@H](O)[C@H](O)[C@@H](O)CO [Xylitol]	Quick
Steviosides	Slow
